pIC50: −log10 of the molar value.
The compounds below were run against ROCK2 (Homo sapiens, UniProt O75116) (assay: ROCK2 kinase inhibition assay (Caliper LABCHIP, FITC peptide substrate)). Settings: 5 μM ATP, 1.5 μM peptide substrate; value ranges.
Assay type: biochemical
Method: The effectiveness of compounds of the present invention as ROCK inhibitors can be determined in a 30 μL assay containing 20 mM HEPES, pH 7.5, 20 mM MgCl2, 0.015% Brij-35, 4 mM DTT, 5 μM ATP and 1.5 μM peptide substrate (FITC-AHA-AKRRRLSSLRA-OH). Compounds were dissolved in DMSO so that the final concentration of DMSO was <2%, and the reaction was initiated with Rho kinase variants. After incubation, the reaction was terminated by the addition of EDTA and the phosphorylated and non-phosphorylated peptides separated using a LABCHIP® 3000 Reader (Caliper Life Sciences). […] Compounds were tested in dose-response format, and the inhibition of kinase activity was calculated at each concentration of compound. The inhibition data were fit using a curve-fitting program to determine the IC50; i.e., the concentration of compound required to inhibit 50% of kinase activity.
Representative Examples were tested in the ROCK2 assay described above and found having ROCK inhibitory activity.

Chain of ROCK2 (O75116 whole entry, species assumed): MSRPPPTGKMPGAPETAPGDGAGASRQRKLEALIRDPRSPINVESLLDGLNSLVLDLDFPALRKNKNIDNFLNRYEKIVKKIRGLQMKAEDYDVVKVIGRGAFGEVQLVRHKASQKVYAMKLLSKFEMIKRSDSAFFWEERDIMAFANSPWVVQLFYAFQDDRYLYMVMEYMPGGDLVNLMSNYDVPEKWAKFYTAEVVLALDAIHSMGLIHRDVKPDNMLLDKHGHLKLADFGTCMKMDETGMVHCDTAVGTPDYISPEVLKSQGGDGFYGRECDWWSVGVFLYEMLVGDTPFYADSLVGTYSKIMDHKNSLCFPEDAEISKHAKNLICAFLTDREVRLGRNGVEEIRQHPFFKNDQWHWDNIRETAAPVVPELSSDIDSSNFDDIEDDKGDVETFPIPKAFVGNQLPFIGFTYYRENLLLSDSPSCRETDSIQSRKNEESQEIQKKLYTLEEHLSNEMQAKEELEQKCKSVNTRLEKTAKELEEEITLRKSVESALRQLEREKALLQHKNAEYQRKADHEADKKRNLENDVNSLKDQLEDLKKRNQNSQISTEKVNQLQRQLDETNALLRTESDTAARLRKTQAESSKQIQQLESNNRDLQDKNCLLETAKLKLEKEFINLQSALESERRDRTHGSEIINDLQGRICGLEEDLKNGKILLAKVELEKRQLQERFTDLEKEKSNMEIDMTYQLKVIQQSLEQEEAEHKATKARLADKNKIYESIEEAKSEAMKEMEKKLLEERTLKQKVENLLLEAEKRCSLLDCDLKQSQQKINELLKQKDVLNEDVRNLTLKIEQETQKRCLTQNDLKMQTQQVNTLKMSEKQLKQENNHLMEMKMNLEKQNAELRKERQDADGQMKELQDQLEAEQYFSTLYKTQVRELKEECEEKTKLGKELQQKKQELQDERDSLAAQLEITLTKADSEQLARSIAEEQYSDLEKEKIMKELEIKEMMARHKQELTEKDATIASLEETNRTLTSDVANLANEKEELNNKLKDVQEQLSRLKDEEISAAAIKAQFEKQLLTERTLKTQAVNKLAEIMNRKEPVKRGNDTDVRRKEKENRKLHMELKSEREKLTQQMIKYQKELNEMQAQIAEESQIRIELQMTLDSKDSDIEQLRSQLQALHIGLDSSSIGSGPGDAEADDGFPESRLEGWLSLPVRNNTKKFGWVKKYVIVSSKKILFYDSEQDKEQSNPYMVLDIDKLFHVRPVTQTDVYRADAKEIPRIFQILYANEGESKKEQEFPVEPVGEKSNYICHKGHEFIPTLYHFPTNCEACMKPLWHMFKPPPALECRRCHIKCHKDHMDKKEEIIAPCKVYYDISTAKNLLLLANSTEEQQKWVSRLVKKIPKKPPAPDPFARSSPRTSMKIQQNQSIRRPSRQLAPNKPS

Structure (SMILES) | pIC50
CNc1nc(N2CCN(Cc3cccc(OCC4CC4)c3)C2=O)ccc1-c1cn[nH]c1 [Example 201, 1-(3-(cyclopropyl-methoxy)-benzyl)-3-(6-(methyl-amino)-5-(1H-pyrazol-4-yl)pyridin-2-yl)-imidazolidin-2-one] | 5.70 to 6.70
COc1nc(-n2ccn(Cc3ccc(F)c(OCC4CC4)c3)c2=O)ccc1-c1cn[nH]c1 [Example 377, 1-(3-(cyclopropylmethoxy)-4-fluorobenzyl)-3-(6-methoxy-5-(1H-pyrazol-4-yl)pyridin-2-yl)-1H-imidazol-2(3H)-one] | 7.70 to 8.68
COc1cc(N2CCN(Cc3c(F)cccc3F)C2=O)ccc1-c1cn[nH]c1 [Example 16, 1-(2,6-Difluorobenzyl)-3-(3-methoxy-4-(1H-pyrazol-4-yl)phenyl)imidazolidin-2-one] | 6.70 to 7.70
COc1ccccc1CCn1ccn(-c2ccc(-c3cn[nH]c3)cc2)c1=O [Example 66, 1-(4-(1H-Pyrazol-4-yl)phenyl)-3-(2-methoxyphenethyl)-1H-imidazol-2(3H)-one] | 5.70 to 6.70
COc1nc(-n2ccn(Cc3cc(F)cc(OCC4CC4)c3)c2=O)ccc1-c1cn[nH]c1 [Example 395, 1-(3-(cyclopropylmethoxy)-5-fluorobenzyl)-3-(6-methoxy-5-(1H-pyrazol-4-yl)pyridin-2-yl)-1H-imidazol-2(3H)-one] | 7.70 to 8.68
COc1nc(-n2ccn(Cc3cccc(OC(F)F)c3)c2=O)ccc1-c1cn[nH]c1 [Example 419, 1-(3-(difluoromethoxy)benzyl)-3-(6-methoxy-5-(1H-pyrazol-4-yl)pyridin-2-yl)-1H-imidazol-2(3H)-one] | > 8.70
COc1nc(-n2ccn(Cc3cccc(OCC4CC4)c3)c2=O)ccc1-c1cn[nH]c1 [Example 378, 1-(3-(cyclopropylmethoxy)benzyl)-3-(6-methoxy-5-(1H-pyrazol-4-yl)pyridin-2-yl)-1H-imidazol-2(3H)-one] | > 8.70
COc1cc(N2C(=O)CN(Cc3ccccc3)C2=O)ccc1-c1cn[nH]c1 [Example 88, 1-benzyl-3-(3-methoxy-4-(1H-pyrazol-4-yl)phenyl)imidazolidine-2,4-dione] | 5.70 to 6.70
COc1cccc(C(C(=O)O)n2ccn(-c3ccc(-c4cn[nH]c4)cn3)c2=O)c1 (stereo not drawn) [Example 351, 2-(3-(5-(1H-pyrazol-4-yl)pyridin-2-yl)-2-oxo-2,3-dihydro-1H-imidazol-1-yl)-2-(3-methoxyphenyl)acetic acid] | 5.70 to 6.70

Next, values leading:

pIC50 | Structure (SMILES)
6.70 to 7.70 | CCc1cc(-n2ccn(Cc3ccc(F)c(OC)c3)c2=O)ccc1-c1cn[nH]c1 [Example 348, 1-(3-ethyl-4-(1H-pyrazol-4-yl)phenyl)-3-(4-fluoro-3-methoxybenzyl)-1H-imidazol-2(3H)-one]
6.70 to 7.70 | CCc1cc(-n2ccn(Cc3cccc(OC)c3)c2=O)ccc1-c1cn[nH]c1 [Example 453, 1-(3-ethyl-4-(1H-pyrazol-4-yl)phenyl)-3-(3-methoxybenzyl)-1H-imidazol-2(3H)-one]
7.70 to 8.68 | COc1cc(F)cc(CN2C(=O)N(c3ccc(-c4cn[nH]c4)cc3)CC2(C)C)c1 [Example 138, 1-(4-(1H-pyrazol-4-yl)phenyl)-3-(3-fluoro-5-methoxy-benzyl)-4,4-dimethyl-imidazolidin-2-one]
7.70 to 8.68 | CCc1cc(N2CCN(Cc3cccc(F)c3)C2=O)ccc1-c1cn[nH]c1 [Example 24, 1-(3-Ethyl-4-(1H-pyrazol-4-yl)phenyl)-3-(3-fluorobenzyl)imidazolidin-2-one]
7.70 to 8.68 | COc1nc(-n2ccn(Cc3ccc(F)cc3C)c2=O)ccc1-c1cn[nH]c1 [Example 381, 1-(4-fluoro-2-methylbenzyl)-3-(6-methoxy-5-(1H-pyrazol-4-yl)pyridin-2-yl)-1H-imidazol-2(3H)-one]
6.70 to 7.70 | Cc1cc(N2CCN(Cc3cccc(OCC4CC4)c3)C2=O)ccc1-c1cn[nH]c1 [Example 284, 1-(3-(cyclopropylmethoxy)benzyl)-3-(3-methyl-4-(1H-pyrazol-4-yl)phenyl)imidazolidin-2-one]

— patent US10123993B2, “Cyclic ureas as inhibitors of rock” (BRISTOL-MYERS SQUIBB COMPANY, priority 2015, dated 2018)
